Reference: US20240391923A1, “METHIONINE ADENOSYLTRANSFERASE 2A INHIBITOR FOR TREATING MTAP DELETION-TYPE CANCER” (SUZHOU GENHOUSE BIO CO., LTD., priority 2022, published 2024)
Where two headings read alike, the source gives them in different places.

What was measured:
[1] = system: HCT116-MTAP wild-type (+/+)-cell strain; assay: Tumor cell proliferation inhibition assay (CellTiter-Glo), HCT116-MTAP wild-type (+/+); format: cell-based; conditions: Homo sapiens, 120 h, HCT116-MTAP wild-type (+/+) cells, 5-day treatment
Summary of the method: (§1)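 Read-out: CellTiter-Glo ATP luminescence after 5-day compound exposure at 37° C./5% CO2. Dosing began 24 h post-seeding, 10 μM top, 1:3 dilutions, 10 points; DMSO-treated cells as reference.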

[2] = system: SDMA in human colon cancer cell line HCT116; assay: Cell symmetric dimethylarginine (SDMA) test, In-cell Western, HCT116 (MTAP wild-type); format: cell-based; conditions: Homo sapiens, HCT-116, 96 h
Summary of the method: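 HCT116 cells treated 4 days at 37° C with compound, top concentration 6 μM, 1:4 dilutions, 6 points, versus DMSO. Fixed cells stained for SDMA with DRAQ5 normalisation; 800/700 nm ratio after background subtraction fitted by non-linear regression for IC50.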

[3] = system: Hut-78 cell strain; assay: Tumor cell proliferation inhibition assay (CellTiter-Glo), Hut-78; format: cell-based; conditions: Homo sapiens, HuT78, 120 h, Hut-78 cells, 5-day treatment
Summary of the method: as §1

[4] = Pharmacokinetic test in mice (IV and PO); format: in vivo; conditions: BALB/c mice; for AUC / clearance / bioavailability / half-life / Vd: mouse, plasma; for half-life: read-out: T½ (converted); for Vd: read-out: Vz
[5] = target: MAT2A recombinant protein (Homo sapiens, UniProt P31153); assay: MAT2A inhibitory activity (malachite green colorimetric enzyme assay); format: biochemical
Chain of MAT2A recombinant protein (P31153 whole entry): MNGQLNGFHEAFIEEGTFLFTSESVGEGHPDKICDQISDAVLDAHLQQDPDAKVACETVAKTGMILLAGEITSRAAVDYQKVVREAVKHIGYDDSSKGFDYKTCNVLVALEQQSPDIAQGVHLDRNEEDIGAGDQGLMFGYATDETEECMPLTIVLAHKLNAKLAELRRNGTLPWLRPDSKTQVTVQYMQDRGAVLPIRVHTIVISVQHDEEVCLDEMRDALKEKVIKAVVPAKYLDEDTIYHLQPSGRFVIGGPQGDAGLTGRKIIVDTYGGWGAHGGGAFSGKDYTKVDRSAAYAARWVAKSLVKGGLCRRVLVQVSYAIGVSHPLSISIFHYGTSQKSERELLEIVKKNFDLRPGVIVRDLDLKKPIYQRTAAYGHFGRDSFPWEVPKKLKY
Summary of the method: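 Recombinant human MAT2A with L-methionine and ATP in 50 mM HEPES pH 7.5, 50 mM KCl, 10 mM MgCl2, 10 mM DTT, 60 min at room temperature. Phosphate released detected by malachite green reagent (15 min) at 630 nm. Ten-point 1:3 series from 1000 nM final; IC50 by variable-slope non-linear regression.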

[6] = Saturation solubility of samples in FaSSIF solution; format: physicochemical; conditions: FaSSIF pH 6.5, room temperature overnight
Procedure: About 0.21 g of sodium hydroxide, about 2.24 g of sodium dihydrogen phosphate dihydrate, and 3.09 g of sodium chloride were weighed out and dissolved in 500 mL of water, and then the pH was adjusted to 6.5 with 1 N sodium hydroxide or 1 N hydrochloric acid. 112 mg of FaSSIF solid was weighed out and placed in a 50 mL volumetric flask, and the above buffer was added for dissolution, diluted to volume, mixed well, and left to stand at room temperature for 2 h or more.
• Test sample: about 1 mg of the test sample was taken, and 1 mL of FaSSIF solution was added. The mixture was stirred at room temperature overnight and centrifuged, and the supernatant was collected and injected for analysis. • Control substance solution: about 1.5 mg of the test sample was precisely weighed out and placed in a 50 mL volumetric flask, and DMF was added for dissolution, diluted to volume, and mixed well.
• Mobile phase A: 1000 mL of purified water was accurately weighed out, 1 mL of formic acid was added, and the mixture was mixed well and degassed with ultrasonic. • Mobile phase B: acetonitrile
The peak of the main component of the control substance and the peak of the test substance consistent with the retention time of the peak of the main component of the control substance were integrated, and the concentration thereof in the FaSSIF solution was calculated according to external standard method.

[7] = IC50 score, read-out: Tumor cell 5-day relative growth inhibition (HCT116-MTAP+/+) (nM), score
[8] = IC50 value, read-out: Tumor cell 5-day relative growth inhibition (HCT116-MTAP+/+)
[9] = IC50 score class, read-out: Cell 96 h SDMA Inhibition (HCT116-MTAP+/+) (score)
[10] = read-out: Cell 96 h SDMA inhibition (HCT116-MTAP+/+)
[11] = IC50 score, read-out: Tumor cell 5-day relative growth inhibition (Hut-78) (nM), score
[12] = IC50 value, read-out: Tumor cell 5-day relative growth inhibition (Hut-78)
[13] = IC50 score class, read-out: MAT2A Inhibition (score)

| IC50 [1, 7] | IC50 [1, 8] | IC50 [2, 9] | IC50 [2, 10] | IC50 [3, 11] | IC50 [3, 12] | AUC ([4]; IV 2 mg/kg) | clearance ([4]; IV 2 mg/kg) | bioavailability ([4]; IV 2 mg/kg, PO 10 mg/kg) | half-life ([4]; IV 2 mg/kg) | Vd ([4]; IV 2 mg/kg) | AUC ([4]; PO 10 mg/kg) | half-life ([4]; PO 10 mg/kg) | IC50 [5, 13] | IC50 ([5]; read-out: MAT2A Inhibition) | AUC (in words) ([4]; summary of Table 7) | half-life (T½) (in words) ([4]; summary of Table 7) | FaSSIF (pH = 6.5) (μg/mL) [6] | SMILES | also measured |
| --- | --- | --- | --- | --- | --- | --- | --- | --- | --- | --- | --- | --- | --- | --- | --- | --- | --- | --- | --- |
| < 500 nM | 191 nM | < 200 nM | 99.2 nM | < 500 nM | 17.4 nM | 3.37 µM·h | 27.3 mL/min/kg | 274% | 9.6 min | 0.4 L/kg | 46.2 µM·h | 30.6 min | – | – | – | – | – | Cc1ncccc1-n1c(=O)c2nn(C)cc2c2ccc(C(F)(F)F)nc21 (single isomer, unassigned) [Compound B180] | – |
| 500 to 2000 nM | 1650 nM | 1000 to 3000 nM | 1420 nM | < 500 nM | 145 nM | 4.5 µM·h | 22.7 mL/min/kg | – | 58.8 min | 1.9 L/kg | 26.8 µM·h | 48.6 min | – | – | – | – | – | Cn1cc2c(n1)c(=O)n(-c1cccnc1)c1cc(Cl)ccc21 [Compound B12] | – |
| 500 to 2000 nM | 1000 nM | 200 to 1000 nM | 467 nM | < 500 nM | 37.1 nM | 119 µM·h | 0.667 mL/min/kg | 115% | 600 min | 0.6 L/kg | 683 µM·h | 540 min | < 100 nM | 47.5 nM | relatively high | relatively long | 20.9 μg/mL | Cn1cc2c(n1)c(=O)n(-c1cccc3[nH]ncc13)c1cc(Cl)ccc21 [Compound B60] | – |
| – | – | 1000 to 3000 nM | 1030 nM | < 500 nM | 135 nM | – | – | – | – | – | – | – | < 100 nM | 24.6 nM | – | – | – | Cn1cc2c(n1)c(=O)n(-c1cccc(O)c1)c1nc(C(F)(F)F)ccc21 [Compound B148] | – |
| ≥ 2000 nM | ≥ 2000 nM | 1000 to 3000 nM | 1060 nM | < 500 nM | 184 nM | – | – | – | – | – | – | – | < 100 nM | 19 nM | – | – | – | O=c1c2n[nH]cc2c2ccc(C(F)(F)F)nc2n1-c1cccnc1 [Compound B178] | – |
| 500 to 2000 nM | 1340 nM | 200 to 1000 nM | 480 nM | < 500 nM | 36.5 nM | 34.3 µM·h | 2.33 mL/min/kg | 131% | 438 min | 1.4 L/kg | 242 µM·h | 207 min | < 100 nM | 14.7 nM | relatively high | relatively long | 20.7 μg/mL | Cn1cc2c(n1)c(=O)n(-c1cccc3[nH]ncc13)c1nc(C(F)(F)F)ccc21 [Compound B181] | – |
| ≥ 2000 nM | 7340 nM | > 3000 nM | > 3000 nM | 500 to 2000 nM | 1220 nM | – | – | – | – | – | – | – | < 100 nM | 56.9 nM | – | – | 17.6 μg/mL | Cn1cc2c(n1)c(=O)n(-c1ccccc1Cl)c1nc(C(F)(F)F)ccc21 [Compound B182] | – |
| 500 to 2000 nM | 464 nM | 1000 to 3000 nM | 2160 nM | – | – | 49.8 µM·h | 0.917 mL/min/kg | 220% | 588 min | 0.8 L/kg | 2110 µM·h | 2050 min | < 100 nM | 39.6 nM | relatively high | relatively long | 248 μg/mL | Cn1cc2c(n1)c(=O)n(-c1cccc3[nH]ncc13)c1cc(Cl)c(F)cc21 [Compound B257] | – |
| ≥ 2000 nM | > 10000 nM | > 3000 nM | > 10000 nM | – | – | 21.4 µM·h | 2.08 mL/min/kg | – | 852 min | 2.6 L/kg | – | – | < 100 nM | 28 nM | relatively high | relatively long | 131 μg/mL | Cn1cc2c(n1)c(=O)n(-c1cccc3[nH]ncc13)c1cc(Cl)c(C#N)cc21 [Compound B258] | tissue distribution (in words) ([4]; concluded from Vz, Table 7): good; Vz value (in words) ([4]; summary of Table 7): relatively high; bioavailability ([4]; IV 2 mg/kg, PO 5 mg/kg): 93%; AUC ([4]; PO 5 mg/kg): 80.7 µM·h; half-life ([4]; PO 5 mg/kg): 462 min |
| ≥ 2000 nM | > 10000 nM | > 3000 nM | > 10000 nM | – | – | 46 µM·h | 1.83 mL/min/kg | – | 558 min | 1.58 L/kg | 219 µM·h | 462 min | – | – | – | – | 36 μg/mL | Cn1cc2c(n1)c(=O)n(-c1cccnc1C1CC1)c1cc(Cl)c(F)cc21 [Compound B340] | – |
